Converted amounts (≈) assume the structure as drawn.
Tests used:
Format in all cases: functional
Escherichia coli [1] = assay: Antibacterial activity against Escherichia coli incubated for 18 hrs post 30 mins pre-diffusion by disk diffusion method
Staphylococcus aureus [2] = assay: Antibacterial activity against Staphylococcus aureus incubated for 18 hrs post 30 mins pre-diffusion by disk diffusion method
Bacillus subtilis = assay: Antibacterial activity against Bacillus subtilis
Clostridium tetani = assay: Antibacterial activity against Clostridium tetani
Escherichia coli [3] = assay: Antibacterial activity against Escherichia coli
Staphylococcus aureus [4] = assay: Antibacterial activity against Staphylococcus aureus
Streptococcus pneumoniae = assay: Antibacterial activity against Streptococcus pneumoniae
Aspergillus niger = assay: Antifungal activity against Aspergillus niger
Pseudomonas aeruginosa = assay: Antibacterial activity against Pseudomonas aeruginosa
Candida albicans = assay: Antifungal activity against Candida albicans

Compound	MIC (Escherichia coli [1])	MIC (Staphylococcus aureus [2])	MIC (Bacillus subtilis)	MIC (Clostridium tetani)	MIC (Escherichia coli [3])	MIC (Staphylococcus aureus [4])	MIC (Streptococcus pneumoniae)	MIC (Aspergillus niger)	MIC (Pseudomonas aeruginosa)	MIC (Candida albicans)
Fc1cc(F)cc(-c2nnc(Sc3cc(Cl)nc(Sc4ccccc4)n3)[nH]2)c1	1.6 to 250 µg/mL (≈ 3.69 to 576 µM)	1.6 to 250 µg/mL (≈ 3.69 to 576 µM)	–	–	–	–	–	–	–	–
FC(F)(F)c1ccc(-c2nnc(Sc3cc(Cl)nc(Sc4ccccc4)n3)[nH]2)cc1	1.6 to 250 µg/mL (≈ 3.43 to 537 µM)	1.6 to 250 µg/mL (≈ 3.43 to 537 µM)	–	–	–	–	–	–	–	–
Cc1ccc(-c2cc(-c3c(C)nn(-c4ccccc4)c3-n3cncn3)n3c(n2)nc2ccccc23)cc1	–	–	62.5 to 250 µg/mL (≈ 130 to 518 µM)	62.5 to 250 µg/mL (≈ 130 to 518 µM)	62.5 to 250 µg/mL (≈ 130 to 518 µM)	62.5 to 250 µg/mL (≈ 130 to 518 µM)	62.5 to 250 µg/mL (≈ 130 to 518 µM)	–	–	–
COC1=CC(=O)C[C@@H](C)[C@]12Oc1c(Cl)c(OC)cc(OC)c1C2=O [GRISEOFULVIN]	–	–	100 to 500 µg/mL (≈ 283 to 1420 µM)	100 to 500 µg/mL (≈ 283 to 1420 µM)	100 to 500 µg/mL (≈ 283 to 1420 µM)	100 to 500 µg/mL (≈ 283 to 1420 µM)	100 to 500 µg/mL (≈ 283 to 1420 µM)	–	–	–
CSc1nc(Cl)cc(Sc2nnc(-c3cc(C)cc(C)c3)[nH]2)n1	1.6 to 250 µg/mL (≈ 4.4 to 687 µM)	1.6 to 250 µg/mL (≈ 4.4 to 687 µM)	–	–	–	–	–	–	–	–
CSc1nc(Cl)cc(Sc2nnc(-c3cccc(C(F)(F)F)c3)[nH]2)n1	1.6 to 250 µg/mL (≈ 3.96 to 619 µM)	1.6 to 250 µg/mL (≈ 3.96 to 619 µM)	–	–	–	–	–	–	–	–
COc1cc(/C=N/n2c(S)nnc2-c2ccncc2)cc(OC)c1OC	–	–	10.2 to 162 µg/mL (≈ 27.5 to 438 µM)	–	10.2 to 162 µg/mL (≈ 27.5 to 438 µM)	10.2 to 162 µg/mL (≈ 27.5 to 438 µM)	–	10.2 to 162 µg/mL (≈ 27.5 to 438 µM)	10.2 to 162 µg/mL (≈ 27.5 to 438 µM)	10.2 to 162 µg/mL (≈ 27.5 to 438 µM)
CSc1nc(Cl)cc(Sc2nnc(-c3ccc(C(F)(F)F)cc3)[nH]2)n1	1.6 to 250 µg/mL (≈ 3.96 to 619 µM)	1.6 to 250 µg/mL (≈ 3.96 to 619 µM)	–	–	–	–	–	–	–	–
Sc1nnc(-c2ccncc2)n1/N=C/c1ccc(Br)cc1	–	–	10.2 to 162 µg/mL (≈ 28.3 to 451 µM)	–	10.2 to 162 µg/mL (≈ 28.3 to 451 µM)	10.2 to 162 µg/mL (≈ 28.3 to 451 µM)	–	10.2 to 162 µg/mL (≈ 28.3 to 451 µM)	10.2 to 162 µg/mL (≈ 28.3 to 451 µM)	10.2 to 162 µg/mL (≈ 28.3 to 451 µM)
CCC/C=N/n1c(S)nnc1-c1ccncc1	–	–	10.2 to 162 µg/mL (≈ 41.2 to 657 µM)	–	10.2 to 162 µg/mL (≈ 41.2 to 657 µM)	10.2 to 162 µg/mL (≈ 41.2 to 657 µM)	–	10.2 to 162 µg/mL (≈ 41.2 to 657 µM)	10.2 to 162 µg/mL (≈ 41.2 to 657 µM)	10.2 to 162 µg/mL (≈ 41.2 to 657 µM)
Fc1cccc(-c2nnc(Sc3cc(Cl)nc(Sc4ccccc4)n3)[nH]2)c1	1.6 to 250 µg/mL (≈ 3.85 to 601 µM)	1.6 to 250 µg/mL (≈ 3.85 to 601 µM)	–	–	–	–	–	–	–	–
COc1cc(-c2nnc(Sc3cc(Cl)nc(Sc4ccccc4)n3)[nH]2)ccc1O	1.6 to 250 µg/mL (≈ 3.6 to 563 µM)	1.6 to 250 µg/mL (≈ 3.6 to 563 µM)	–	–	–	–	–	–	–	–
Sc1nnc(-c2ccncc2)n1/N=C/c1ccccc1	–	–	10.2 to 162 µg/mL (≈ 36.3 to 578 µM)	–	10.2 to 162 µg/mL (≈ 36.3 to 578 µM)	14.1 to 17.2 µg/mL (≈ 50.1 to 61.1 µM)	–	10.2 to 162 µg/mL (≈ 36.3 to 578 µM)	14.1 to 17.2 µg/mL (≈ 50.1 to 61.1 µM)	10.2 to 162 µg/mL (≈ 36.3 to 578 µM)
Cc1cc(C)cc(-c2nnc(Sc3cc(Cl)nc(Sc4ccccc4)n3)[nH]2)c1	1.6 to 250 µg/mL (≈ 3.76 to 587 µM)	1.6 to 250 µg/mL (≈ 3.76 to 587 µM)	–	–	–	–	–	–	–	–
Fc1ccc(/C=N/n2c(-c3ccncc3)n[nH]c2=S)cc1	–	–	10.2 to 162 µg/mL (≈ 34.1 to 543 µM)	–	10.2 to 162 µg/mL (≈ 34.1 to 543 µM)	10.2 µg/mL (≈ 34.1 µM)	–	10.2 to 162 µg/mL (≈ 34.1 to 543 µM)	12.5 µg/mL (≈ 41.8 µM)	10.2 to 162 µg/mL (≈ 34.1 to 543 µM)
Cc1cc(C)cc(-c2nnc(Sc3cc(Cl)ncn3)[nH]2)c1	1.6 to 250 µg/mL (≈ 5.03 to 787 µM)	1.6 to 250 µg/mL (≈ 5.03 to 787 µM)	–	–	–	–	–	–	–	–
COc1ccc(/C=N/n2c(S)nnc2-c2ccncc2)cc1	–	–	10.2 to 162 µg/mL (≈ 32.8 to 522 µM)	–	10.2 to 162 µg/mL (≈ 32.8 to 522 µM)	10.2 to 162 µg/mL (≈ 32.8 to 522 µM)	–	10.2 to 162 µg/mL (≈ 32.8 to 522 µM)	10.2 to 162 µg/mL (≈ 32.8 to 522 µM)	10.2 to 162 µg/mL (≈ 32.8 to 522 µM)
Brc1ccccc1-c1nnc2sc(-c3ccccc3)nn12	–	–	–	–	–	–	–	6.25 µg/mL (≈ 17.5 µM)	–	3.12 µg/mL (≈ 8.75 µM)
COc1cc(OC)cc(-c2nnc(Sc3cc(Cl)nc(SC)n3)[nH]2)c1	1.6 to 250 µg/mL (≈ 4.04 to 631 µM)	1.6 to 250 µg/mL (≈ 4.04 to 631 µM)	–	–	–	–	–	–	–	–
Cc1nn(-c2ccccc2)c(-n2cncn2)c1-c1cc(-c2ccc(-c3cc[nH]c3)cc2)nc2nc3ccccc3n12	–	–	62.5 to 250 µg/mL (≈ 117 to 469 µM)	62.5 to 250 µg/mL (≈ 117 to 469 µM)	62.5 to 250 µg/mL (≈ 117 to 469 µM)	62.5 to 250 µg/mL (≈ 117 to 469 µM)	62.5 to 250 µg/mL (≈ 117 to 469 µM)	–	–	–
COc1ccc(-c2cc(-c3c(C)nn(-c4ccccc4)c3-n3cncn3)n3c(n2)nc2ccccc23)cc1	–	–	62.5 to 250 µg/mL (≈ 125 to 501 µM)	62.5 to 250 µg/mL (≈ 125 to 501 µM)	62.5 to 250 µg/mL (≈ 125 to 501 µM)	62.5 to 250 µg/mL (≈ 125 to 501 µM)	62.5 to 250 µg/mL (≈ 125 to 501 µM)	–	–	–
NYSTATIN	–	–	100 to 500 µg/mL	100 to 500 µg/mL	100 to 500 µg/mL	100 to 500 µg/mL	100 to 500 µg/mL	–	–	–

From ChEMBL document CHEMBL4346715, “Antibacterial activity study of 1,2,4-triazole derivatives” (Eur J Med Chem, 2019)
